From PMC3460372 (Organic letters, 2012)
Numbered stars: 1 amine (or outer) side, 2 acyl side, 3 side chain; on linkers, the order of the positions; unused ones are H or OH. Square brackets hold non-standard residues; d marks the D form. Peptide text beside a SMILES is read from it. * marks the point of attachment. Cinnamoyl(2-(1Z-pentenyl)) = CCC/C=C\c1ccccc1/C=C/C(=O)*; X1 = CN(/C(=C/c1ccc(O)cc1)C(=O)[*:2])[*:1]; aThr = C[C@H](O)[C@H](N)C(=O)O

Target: BmAsnRS (Brugia malayi asparaginyl-tRNA synthetase) (Brugia malayi, UniProt P10723)
Test: nonradioactive pretransfer editing assay, malachite green phosphate detection
Format: biochemical

Sequence of BmAsnRS (Brugia malayi asparaginyl-tRNA synthetase) (P10723 whole entry): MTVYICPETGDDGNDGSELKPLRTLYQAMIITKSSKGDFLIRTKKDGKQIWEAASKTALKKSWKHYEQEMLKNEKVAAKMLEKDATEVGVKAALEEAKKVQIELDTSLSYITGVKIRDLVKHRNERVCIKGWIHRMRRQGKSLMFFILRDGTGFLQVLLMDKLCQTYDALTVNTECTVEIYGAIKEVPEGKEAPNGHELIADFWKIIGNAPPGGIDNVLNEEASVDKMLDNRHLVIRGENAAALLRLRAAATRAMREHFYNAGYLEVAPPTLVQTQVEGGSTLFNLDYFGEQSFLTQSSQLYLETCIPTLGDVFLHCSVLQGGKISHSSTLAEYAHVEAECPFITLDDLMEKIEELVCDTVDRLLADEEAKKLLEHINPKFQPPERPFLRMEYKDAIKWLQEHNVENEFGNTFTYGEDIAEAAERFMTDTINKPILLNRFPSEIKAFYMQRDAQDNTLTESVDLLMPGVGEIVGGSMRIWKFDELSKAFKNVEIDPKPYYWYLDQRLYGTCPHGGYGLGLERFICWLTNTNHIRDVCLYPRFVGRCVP

`CCC/C=C\c1ccccc1/C=C/C(=O)N[C@H](C(=O)N(C)/C(=C/c1ccc(O)cc1)C(=O)N[C@@H](CC(C)C)C(=O)N[C@H](Cc1ccccc1)C(=O)N[C@H](C(=O)O)[C@H](C)O)[C@@H](C)O` [compound 3, WS9326D] ({Cinnamoyl(2-(1Z-pentenyl))}-T[X1]L[dF][aThr]-OH) gave an IC50 of ~50 µM.

Compound `CCC/C=C\c1ccccc1/C=C/C(=O)N[C@@H](CO)C(=O)N(C)/C(=C/c1ccc(O)cc1)C(=O)N[C@@H](CC(C)C)C(=O)N[C@H](Cc1ccccc1)C(=O)N[C@H](C(=O)O)[C@H](C)O` [compound 4, WS9326E] ({Cinnamoyl(2-(1Z-pentenyl))}-S[X1]L[dF][aThr]-OH) has an IC50 of ~75 µM.
